Reference: ChEMBL document CHEMBL3399960, “Cytochalasin derivatives from a jellyfish-derived fungus Phoma sp” (Bioorg Med Chem Lett, 2015)

Tests used:
Format in all cases: functional, cell-based
A549 = assay: Cytotoxicity against human A549 cells after 24 hrs by WST assay; conditions: A549, 24 h
KB = assay: Cytotoxicity against human KB cells after 24 hrs by WST assay
[1] = Cytotoxicity against human HCT116 cells after 24 hrs by WST assay; conditions: HCT-116, 24 h

## CC1=C(C)[C@H]2[C@H](Cc3ccccc3)NC(=O)[C@]23OC(=O)/C=C/C(=O)CCC[C@@H](C)C/C=C/[C@H]3[C@@H]1O
A549
  IC50: 29.2 µM
KB
  IC50: 19.9 µM
[1]
  IC50: 38.1 µM

## CC1=C(C)[C@H]2[C@H](Cc3ccccc3)NC(=O)[C@]23OC(=O)CCC(=O)CCC[C@@H](C)C/C=C/[C@H]3[C@@H]1O
A549
  IC50: 37.3 µM
KB
  IC50: > 40 µM
[1]
  IC50: > 40 µM

## CC1=C(C)[C@H]2[C@H](Cc3ccccc3)NC(=O)[C@]23OC(=O)CC[C@H](O)CCC[C@@H](C)C/C=C/[C@H]3[C@@H]1O
A549
  IC50: > 40 µM
KB
  IC50: > 40 µM
[1]
  IC50: > 40 µM

## C=C1[C@@H](C)[C@H]2[C@H](Cc3ccccc3)NC(=O)[C@]23OC(=O)CCC(=O)CCC[C@@H](C)C/C=C/[C@H]3[C@@H]1O
A549
  IC50: 39.3 µM
KB
  IC50: 37.3 µM
[1]
  IC50: 39.3 µM

## CC1=C[C@@H]2/C=C/C[C@H](C)CCCC/C=C/C(=O)O[C@]23C(=O)N[C@@H](Cc2ccccc2)[C@@H]3[C@@H]1C
A549
  IC50: 36.2 µM
KB
  IC50: 19.7 µM
[1]
  IC50: 18.2 µM

## COc1cccc2c1C(=O)c1c(O)c3c(c(O)c1C2=O)C[C@@](O)(C(=O)CO)C[C@@H]3O[C@H]1C[C@H](N)[C@H](O)[C@H](C)O1 [DOXORUBICIN]
A549
  IC50: 1.3 µM
KB
  IC50: 4.3 µM
[1]
  IC50: 2.2 µM
